Measurements published in the NIST ThermoML archive (doi:10.1021/je700619q).

How the values were obtained:
[1] = xn = mol fraction of the nth substance listed; settings: 101 kPa, Liquid
[2] = 101 kPa, Liquid
[3] = Boiling temperature at pressure P; settings: 101 kPa; Liquid; Distillation

CCNCC [diethylamine] + CCCCCCCCCCO
[1]
Settings | mass density, 293 K [kg/m3] | mass density, 303 K [kg/m3] | mass density, 313 K [kg/m3] | speed of sound, 293 K [m/s] | speed of sound, 303 K [m/s] | speed of sound, 313 K [m/s] | viscosity, 293 K [mPa·s] | viscosity, 303 K [mPa·s] | viscosity, 313 K [mPa·s]
x1 = 0.0989 | 828.2 | 820.7 | 811.5 | 1383.2 | 1372.4 | 1332.8 | 11.04 | 7.825 | 5.532
x1 = 0.1963 | 824.8 | 814.6 | 806.3 | 1352 | 1350 | 1326 | 8.974 | 6.352 | 4.522
x1 = 0.3062 | 818.1 | 810 | 803.7 | 1347.2 | 1340 | 1316 | 7.105 | 4.977 | 3.558
x1 = 0.4062 | 814.4 | 808.4 | 802.1 | 1333.6 | 1326 | 1297.2 | 5.423 | 3.524 | 2.793
x1 = 0.4898 | 799 | 794.2 | 788.9 | 1321.8 | 1314 | 1290.8 | 3.948 | 2.857 | 2.244
x1 = 0.5973 | 795.6 | 790.7 | 782.9 | 1310.4 | 1302.4 | 1274.8 | 2.609 | 2.015 | 1.631
x1 = 0.6708 | 785.4 | 779.9 | 773.7 | 1302.4 | 1295.6 | 1258.4 | 1.925 | 1.652 | 1.257
x1 = 0.7388 | 779.4 | 773.3 | 769.7 | 1293.6 | 1278.8 | 1238.4 | 1.43 | 1.253 | 0.9795
x1 = 0.8012 | 770.2 | 763.6 | 755.5 | 1288.8 | 1266.4 | 1212 | 1.067 | 0.9298 | 0.7247
x1 = 0.8562 | 759.5 | 753.7 | 745.6 | 1247.2 | 1216.8 | 1164.8 | 0.7924 | 0.689 | 0.5424
x1 = 0.9031 | 741.4 | 737.6 | 728.2 | 1211.2 | 1176 | 1123.2 | 0.6052 | 0.5352 | 0.4368
x1 = 0.9601 | 720.7 | 709.2 | 694.8 | 1173.2 | 1130.4 | 1082 | 0.4396 | 0.3609 | 0.3265
x1 = 1 | 707.6 | 693.6 | 678.4 | 1140.8 | 1089.6 | 1045 | 0.3212 | 0.275 | 0.2577

CCNCC [diethylamine]
[2]
Settings | mass density [kg/m3] | speed of sound [m/s] | viscosity [mPa·s]
293 K | 707.6 | 1140.8 | 0.3212
303 K | 693.6 | 1089.6 | 0.275
313 K | 678.4 | 1045 | 0.2577

Settings | Boiling temperature at pressure P [°C]
[3] | 55.30
